In ChEMBL document CHEMBL1148323, “Conformationally constrained peptide analogues of pTyr-Glu-Glu-Ile as inhibitors of the Src SH2 domain binding” (J Med Chem, 2004):

Target: Proto-oncogene tyrosine-protein kinase Src (Homo sapiens, UniProt P12931)
Assay: Concentration of compound required for inhibiting the binding of the fluorescent probe to the c-Src tyrosine kinase SH2 domain by 50%

Proto-oncogene tyrosine-protein kinase Src, sequence (P12931 2-536 limits assumed): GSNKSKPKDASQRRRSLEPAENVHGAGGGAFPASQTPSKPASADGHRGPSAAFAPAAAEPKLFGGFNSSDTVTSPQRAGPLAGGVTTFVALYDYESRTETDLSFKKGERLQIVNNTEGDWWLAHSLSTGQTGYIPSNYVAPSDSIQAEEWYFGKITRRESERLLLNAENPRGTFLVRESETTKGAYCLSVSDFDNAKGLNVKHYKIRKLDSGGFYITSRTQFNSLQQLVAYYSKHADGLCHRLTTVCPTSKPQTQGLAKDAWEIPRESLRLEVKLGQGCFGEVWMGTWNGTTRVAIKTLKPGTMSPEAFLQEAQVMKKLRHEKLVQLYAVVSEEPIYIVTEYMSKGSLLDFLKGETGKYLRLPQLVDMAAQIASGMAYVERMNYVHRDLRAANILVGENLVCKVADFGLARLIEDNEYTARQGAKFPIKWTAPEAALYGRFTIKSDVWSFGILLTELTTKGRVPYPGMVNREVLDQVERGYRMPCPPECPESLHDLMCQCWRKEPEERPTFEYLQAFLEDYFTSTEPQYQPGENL

| IC50 [µM] | SMILES |
| --- | --- |
| 5.9 | CC[C@H](C)[C@H](NC(=O)[C@@H]1CCC(=O)N[C@@H](Cc2ccc(OP(=O)(O)O)cc2)C(=O)N[C@@H](CCC(=O)O)C(=O)N1)C(=O)O |
| 3.3 | CC[C@H](C)[C@H](NC(=O)[C@H](CCC(=O)O)NC(=O)[C@@H]1CCC(=O)N[C@@H](Cc2ccc(OP(=O)(O)O)cc2)C(=O)N1)C(=O)O |
| 34.6 | CC(=O)N[C@@H](Cc1ccc(OP(=O)(O)O)cc1)C(=O)N[C@@H](C(=O)O)C(=O)N[C@H](CCC(=O)O)CC(=O)N[C@H](C(=O)O)C(C)C |
| > 100 | CC[C@H](C)[C@H](NC(=O)C[C@H](NC(=O)[C@H](CCC(=O)O)NC(=O)[C@@H](N)Cc1ccc(OP(=O)(O)O)cc1)C(=O)O)C(=O)O |
| 69.5 | CC[C@@H](C)[C@H](NC(=O)[C@H](CCC(=O)O)NC(=O)CC[C@H](NC(=O)[C@H](Cc1ccc(OP(=O)(O)O)cc1)NC(C)=O)C(=O)O)C(=O)O |
| 25.7 | CC(=O)N[C@@H](Cc1ccc(OP(=O)(O)O)cc1)C(=O)N[C@@H](CCC(=O)O)C(=O)N[C@H](CC(=O)O)CC(=O)N[C@H](C(=O)O)C(C)C |
| 76.3 | CC(C)[C@H](NC(=O)C[C@@H](CC(=O)O)NC(=O)[C@H](CCC(=O)O)NC(=O)[C@@H](N)Cc1ccc(OP(=O)(O)O)cc1)C(=O)O |
| > 100 | CC[C@H](C)[C@H](NC(=O)CC[C@H](NC(=O)[C@H](CCC(=O)O)NC(=O)[C@@H](N)Cc1ccc(OP(=O)(O)O)cc1)C(=O)O)C(=O)O |
| > 100 | CC[C@@H](C)[C@H](NC(=O)[C@H](CCC(=O)O)NC(=O)C[C@H](NC(=O)[C@@H](N)Cc1ccc(OP(=O)(O)O)cc1)C(=O)O)C(=O)O |
| 12.1 | CC[C@@H](C)[C@H](NC(=O)[C@H](CCC(=O)O)NC(=O)C[C@@H]1NC(=O)[C@H](Cc2ccc(OP(=O)(O)O)cc2)NC1=O)C(=O)O |
| 90.7 | CC[C@H](C)[C@H](NC(=O)C[C@H](NC(=O)[C@H](CCC(=O)O)NC(=O)[C@H](Cc1ccc(OP(=O)(O)O)cc1)NC(C)=O)C(=O)O)C(=O)O |
| 1.2 | CC[C@@H](C)[C@H](NC(=O)[C@H](CCC(=O)O)NC(=O)CC[C@@H]1NC(=O)[C@H](Cc2ccc(OP(=O)(O)O)cc2)NC1=O)C(=O)O |
| 75.4 | CC[C@@H](C)[C@H](NC(=O)[C@H](CCC(=O)O)NC(=O)C[C@H](NC(=O)[C@H](Cc1ccc(OP(=O)(O)O)cc1)NC(C)=O)C(=O)O)C(=O)O |
| 80.7 | CC[C@H](C)[C@H](NC(=O)CC[C@H](NC(=O)[C@H](CCC(=O)O)NC(=O)[C@H](Cc1ccc(OP(=O)(O)O)cc1)NC(C)=O)C(=O)O)C(=O)O |
| 1.5 | CC[C@H](C)[C@H](NC(=O)C[C@@H]1NC(=O)[C@H](CCC(=O)O)NC(=O)[C@H](Cc2ccc(OP(=O)(O)O)cc2)NC1=O)C(=O)O |
| > 100 | CC[C@@H](C)[C@H](NC(=O)[C@H](CCC(=O)O)NC(=O)CC[C@H](NC(=O)[C@@H](N)Cc1ccc(OP(=O)(O)O)cc1)C(=O)O)C(=O)O |
| 1.1 | CC[C@H](C)[C@H](NC(=O)CC[C@@H]1NC(=O)[C@H](CCC(=O)O)NC(=O)[C@H](Cc2ccc(OP(=O)(O)O)cc2)NC1=O)C(=O)O |
| 83.2 | CC(C)[C@H](NC(=O)C[C@@H](CCC(=O)O)NC(=O)C(NC(=O)[C@@H](N)Cc1ccc(OP(=O)(O)O)cc1)C(=O)O)C(=O)O (single isomer, unassigned) |
